Assay results from paper PMC8482877 (Biochemical and biophysical research communications, 2020).

Legend:
[1] = test system: BHK cells expressing ABCA1; assay: Radiolabeled cholesterol efflux from ABCA1-BHK cells; format: cell-based; conditions: [3H]-cholesterol transferred from ABCA1-BHK cells to serum free medium containing peptides over 18 h; triplicates
[2] = Solubilization of DMPC lipid vesicles by peptides; format: physicochemical; conditions: DMPC vesicles 1 mg/mL in PBS, peptide 0.1 mg/mL, 24 °C, 660 nm

## VLESFKVSFLSALEEYTKKLNT
[1]
  ABCA1-mediated cholesterol efflux: almost completely inactive
[2]
  DMPC vesicle solubilization, comparison between peptides: less effective than the other active peptides
